The NIST ThermoML archive (doi:10.1007/s10765-010-0874-x)

Legend:
[1] = 101 kPa, Liquid; for speed of sound: Sing-around technique in a fixed-path interferometer
[2] = xn = mol fraction of the nth substance listed; details: 101 kPa, Liquid; for speed of sound: Sing-around technique in a fixed-path interferometer

ClCCCl [1,2-dichloroethane]
[1]
Details | mass density [kg/m3] | speed of sound [m/s]
293.15 K | 1252.77 | 1212.9
298.15 K | 1245.56 | 1193.6

ClCCCl [1,2-dichloroethane] + CCCCCCO
[2]
Details | mass density, 293.15 K [kg/m3] | mass density, 298.15 K [kg/m3] | speed of sound, 293.15 K [m/s] | speed of sound, 298.15 K [m/s]
x1 = 0.037 | 828.769 | 825.105 | 1313.2 | 1296.2
x1 = 0.0769 | 839.847 | 836.074 | 1305.3 | 1288.2
x1 = 0.1499 | 860.583 | 856.62 | 1291.7 | 1274.3
x1 = 0.2147 | 879.725 | 875.586 | 1279.7 | 1262.2
x1 = 0.2935 | 904.954 | 900.591 | 1265.2 | 1248
x1 = 0.3952 | 940.475 | 935.784 | 1247.7 | 1230
x1 = 0.4532 | 962.107 | 957.223 | 1238.5 | 1220.7
x1 = 0.5596 | 1005.05 | 999.79 | 1222.8 | 1206
x1 = 0.6113 | 1027.55 | 1022.09 | 1216.7 | 1199.8
x1 = 0.6971 | 1067.98 | 1062.14 | 1207.9 | 1189.7
x1 = 0.7791 | 1111.06 | 1104.85 | 1202.3 | 1184.3
x1 = 0.8563 | 1155.16 | 1148.59 | 1200.7 | 1182.8
x1 = 0.9335 | 1205.43 | 1198.46 | 1205.4 | 1184.3
x1 = 0.979 | 1236.99 | 1229.8 | 1211.8 | 1187.7
x1 = 1 | 1252.77 | 1245.56 | 1212.9 | 1193.6

ClC(Cl)=C(Cl)Cl [tetrachloroethene] + CCCCCCO
[2]
Details | mass density, 293.15 K [kg/m3] | mass density, 298.15 K [kg/m3] | speed of sound, 293.15 K [m/s] | speed of sound, 298.15 K [m/s]
x1 = 0.0688 | 864.637 | 860.792 | 1292 | 1274.5
x1 = 0.123 | 901.521 | 897.46 | 1270.8 | 1253.7
x1 = 0.2457 | 987.759 | 983.18 | 1226.3 | 1209.5
x1 = 0.3618 | 1072.99 | 1067.89 | 1188.2 | 1171.6
x1 = 0.4502 | 1140.46 | 1134.94 | 1161.5 | 1144.9
x1 = 0.5583 | 1226.3 | 1220.26 | 1131.5 | 1115.1
x1 = 0.6518 | 1303.62 | 1297.1 | 1108.3 | 1092
x1 = 0.7068 | 1350.53 | 1343.73 | 1095.8 | 1079.5
x1 = 0.7419 | 1381.18 | 1374.19 | 1088.4 | 1072
x1 = 0.7797 | 1414.65 | 1407.46 | 1080.9 | 1064.6
x1 = 0.8315 | 1461.44 | 1453.97 | 1071.4 | 1055.6
x1 = 0.8718 | 1498.8 | 1491.15 | 1064.7 | 1049
x1 = 0.9179 | 1542.25 | 1534.33 | 1058.2 | 1043.3
x1 = 0.9504 | 1573.61 | 1565.56 | 1055 | 1041.2
x1 = 1 | 1622.74 | 1614.43 | 1054 | 1039

CCCCCCO [hexan-1-ol] + ClCCCl
[2], x2 = 0
Details | mass density [kg/m3] | speed of sound [m/s]
293.15 K | 818.856 | 1320.1
298.15 K | 815.281 | 1303.2

BrCCBr [1,2-dibromoethane] + CCCCCCO
[2]
Details | mass density, 293.15 K [kg/m3] | mass density, 298.15 K [kg/m3] | speed of sound, 293.15 K [m/s] | speed of sound, 298.15 K [m/s]
x1 = 0.0402 | 856.608 | 852.83 | 1296.7 | 1280
x1 = 0.0682 | 883.413 | 879.495 | 1281 | 1264.4
x1 = 0.1276 | 941.916 | 937.69 | 1249.4 | 1233.1
x1 = 0.2056 | 1022.36 | 1017.7 | 1211.2 | 1195.3
x1 = 0.2686 | 1090.47 | 1085.45 | 1182.9 | 1167.3
x1 = 0.3892 | 1228.97 | 1223.2 | 1135.2 | 1120.2
x1 = 0.4277 | 1276.43 | 1270.41 | 1121.2 | 1106.3
x1 = 0.5444 | 1427.13 | 1420.31 | 1083.6 | 1069.2
x1 = 0.6405 | 1562 | 1554.45 | 1057.4 | 1043.6
x1 = 0.7326 | 1701.64 | 1693.37 | 1036.5 | 1023.1
x1 = 0.8519 | 1899.69 | 1890.44 | 1016.8 | 1004
x1 = 0.9273 | 2036.52 | 2026.66 | 1009.9 | 997.38
x1 = 0.9587 | 2096.51 | 2086.4 | 1008.3 | 995.92
x1 = 0.9782 | 2135.29 | 2125.02 | 1007.4 | 994.76
x1 = 1 | 2179.59 | 2169.14 | 1007 | 994.27

CCCCCCO [hexan-1-ol] + ClC(Cl)=C(Cl)Cl
[2], x2 = 0
Details | mass density [kg/m3] | speed of sound [m/s]
293.15 K | 818.856 | 1320.1
298.15 K | 815.281 | 1303.2

CCCCCCO [hexan-1-ol]
[1]
Details | mass density [kg/m3] | speed of sound [m/s]
293.15 K | 818.856 | 1320.1
298.15 K | 815.281 | 1303.2

CCCCCCO [hexan-1-ol] + BrCCBr
[2], x2 = 0
Details | mass density [kg/m3] | speed of sound [m/s]
293.15 K | 818.856 | 1320.1
298.15 K | 815.281 | 1303.2

BrCCBr [1,2-dibromoethane]
[1]
Details | mass density [kg/m3] | speed of sound [m/s]
293.15 K | 2179.59 | 1007
298.15 K | 2169.14 | 994.27

ClC(Cl)=C(Cl)Cl [tetrachloroethene]
[1]
Details | mass density [kg/m3] | speed of sound [m/s]
293.15 K | 1622.74 | 1054
298.15 K | 1614.43 | 1039
